How the values were obtained:
[1] = molecular target: Serine/threonine-protein kinase MRCK alpha (Homo sapiens) (UniProt Q5VT25); assay: Selectivity interaction (KinomeScan (DiscoverX)) EUB0000695a CDC42BPA; conditions: at 100 nM
[2] = molecular target: T1, Cyclin-dependent kinase 11A (Homo sapiens) (UniProt Q9UQ88); assay: Selectivity interaction (LanthaScreen Eu Kinase Binding Assay) EUB0001632a CDK11A; conditions: at 10 µM
T1 sequence (whole entry): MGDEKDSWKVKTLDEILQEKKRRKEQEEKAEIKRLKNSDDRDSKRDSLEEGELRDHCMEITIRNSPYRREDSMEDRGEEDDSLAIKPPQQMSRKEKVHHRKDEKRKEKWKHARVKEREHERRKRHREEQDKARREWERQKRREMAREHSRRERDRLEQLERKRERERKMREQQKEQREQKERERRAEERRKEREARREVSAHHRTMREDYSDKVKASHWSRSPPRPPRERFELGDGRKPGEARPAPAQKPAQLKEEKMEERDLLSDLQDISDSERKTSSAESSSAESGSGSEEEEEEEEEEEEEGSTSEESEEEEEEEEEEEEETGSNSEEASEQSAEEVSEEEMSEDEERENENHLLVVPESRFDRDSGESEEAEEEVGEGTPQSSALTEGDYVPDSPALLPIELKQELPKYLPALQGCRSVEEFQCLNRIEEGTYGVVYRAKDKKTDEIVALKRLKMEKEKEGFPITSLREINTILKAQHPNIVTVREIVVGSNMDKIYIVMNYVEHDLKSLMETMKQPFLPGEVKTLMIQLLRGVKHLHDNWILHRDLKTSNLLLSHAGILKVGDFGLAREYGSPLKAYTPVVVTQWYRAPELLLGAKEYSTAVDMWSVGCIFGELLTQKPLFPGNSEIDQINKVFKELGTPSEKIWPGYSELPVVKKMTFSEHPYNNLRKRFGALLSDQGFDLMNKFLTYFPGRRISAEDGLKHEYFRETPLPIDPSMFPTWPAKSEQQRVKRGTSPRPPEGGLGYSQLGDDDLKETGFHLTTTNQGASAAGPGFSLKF

[3] = molecular target: Death-associated protein kinase 3 (Homo sapiens) (UniProt O43293); conditions: at 10 µM
Chain of Death-associated protein kinase 3 (Homo sapiens) (O43293 whole entry, looked up): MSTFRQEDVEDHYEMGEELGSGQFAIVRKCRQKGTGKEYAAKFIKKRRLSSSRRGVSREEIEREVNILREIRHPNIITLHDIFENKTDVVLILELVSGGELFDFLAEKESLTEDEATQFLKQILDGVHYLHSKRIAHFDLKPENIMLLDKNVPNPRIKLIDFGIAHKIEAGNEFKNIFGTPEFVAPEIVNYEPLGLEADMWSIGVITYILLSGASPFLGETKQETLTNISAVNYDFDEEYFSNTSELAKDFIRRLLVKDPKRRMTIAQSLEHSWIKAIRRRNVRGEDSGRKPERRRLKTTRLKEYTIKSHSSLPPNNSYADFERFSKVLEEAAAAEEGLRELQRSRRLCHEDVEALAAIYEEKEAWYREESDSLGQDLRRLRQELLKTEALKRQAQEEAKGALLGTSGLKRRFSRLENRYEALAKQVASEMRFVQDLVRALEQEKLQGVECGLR

[4] = molecular target: Tyrosine-protein kinase BTK (Homo sapiens, UniProt Q06187); assay: Selectivity interaction (Millipore kinase profiler) EUB0000124b BTK; conditions: at 10 µM
Chain of Tyrosine-protein kinase BTK (Q06187 whole entry): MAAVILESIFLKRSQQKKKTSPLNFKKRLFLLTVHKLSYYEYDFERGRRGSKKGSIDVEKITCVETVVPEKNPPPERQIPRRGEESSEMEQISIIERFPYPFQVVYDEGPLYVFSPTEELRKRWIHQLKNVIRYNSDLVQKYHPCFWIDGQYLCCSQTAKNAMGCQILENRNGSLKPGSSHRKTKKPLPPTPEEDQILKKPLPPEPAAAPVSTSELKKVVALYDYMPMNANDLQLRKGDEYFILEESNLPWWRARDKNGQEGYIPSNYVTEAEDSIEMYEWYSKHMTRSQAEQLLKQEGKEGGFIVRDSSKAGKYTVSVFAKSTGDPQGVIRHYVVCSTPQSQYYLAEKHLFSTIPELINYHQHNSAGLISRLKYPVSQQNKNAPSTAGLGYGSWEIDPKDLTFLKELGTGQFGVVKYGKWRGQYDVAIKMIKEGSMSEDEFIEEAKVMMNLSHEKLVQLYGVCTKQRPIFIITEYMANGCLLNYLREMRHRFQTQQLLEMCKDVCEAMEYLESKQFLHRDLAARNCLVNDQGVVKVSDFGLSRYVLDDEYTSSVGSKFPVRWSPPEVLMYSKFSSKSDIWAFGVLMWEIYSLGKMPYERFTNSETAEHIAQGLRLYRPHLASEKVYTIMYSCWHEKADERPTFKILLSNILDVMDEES

[5] = molecular target: Mitogen-activated protein kinase 1 (Homo sapiens, UniProt P28482); assay: Selectivity interaction (Upstate Kinase Profiler service (Millipore)) EUB0000056c MAPK1; conditions: at 1 µM
Chain of Mitogen-activated protein kinase 1 (P28482 whole entry): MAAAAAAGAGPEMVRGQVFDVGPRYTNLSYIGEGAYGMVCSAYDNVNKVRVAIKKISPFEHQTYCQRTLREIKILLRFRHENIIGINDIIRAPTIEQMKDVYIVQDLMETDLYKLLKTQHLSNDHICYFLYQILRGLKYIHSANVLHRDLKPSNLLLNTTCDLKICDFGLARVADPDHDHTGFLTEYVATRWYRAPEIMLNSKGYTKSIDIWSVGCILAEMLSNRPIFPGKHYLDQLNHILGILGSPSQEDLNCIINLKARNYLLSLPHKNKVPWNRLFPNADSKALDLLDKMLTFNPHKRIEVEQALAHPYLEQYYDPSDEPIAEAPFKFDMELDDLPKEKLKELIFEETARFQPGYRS

[6] = molecular target: T2, Serine/threonine-protein kinase Nek9 (Homo sapiens) (UniProt Q8TD19); assay: Selectivity interaction (ActivX KiNativ screen (kinase selectivity in THP-1 cell lysates)) EUB0000639a NEK9; type: subcellular; conditions: lysate, at 0.01 µM
T2 sequence (whole entry): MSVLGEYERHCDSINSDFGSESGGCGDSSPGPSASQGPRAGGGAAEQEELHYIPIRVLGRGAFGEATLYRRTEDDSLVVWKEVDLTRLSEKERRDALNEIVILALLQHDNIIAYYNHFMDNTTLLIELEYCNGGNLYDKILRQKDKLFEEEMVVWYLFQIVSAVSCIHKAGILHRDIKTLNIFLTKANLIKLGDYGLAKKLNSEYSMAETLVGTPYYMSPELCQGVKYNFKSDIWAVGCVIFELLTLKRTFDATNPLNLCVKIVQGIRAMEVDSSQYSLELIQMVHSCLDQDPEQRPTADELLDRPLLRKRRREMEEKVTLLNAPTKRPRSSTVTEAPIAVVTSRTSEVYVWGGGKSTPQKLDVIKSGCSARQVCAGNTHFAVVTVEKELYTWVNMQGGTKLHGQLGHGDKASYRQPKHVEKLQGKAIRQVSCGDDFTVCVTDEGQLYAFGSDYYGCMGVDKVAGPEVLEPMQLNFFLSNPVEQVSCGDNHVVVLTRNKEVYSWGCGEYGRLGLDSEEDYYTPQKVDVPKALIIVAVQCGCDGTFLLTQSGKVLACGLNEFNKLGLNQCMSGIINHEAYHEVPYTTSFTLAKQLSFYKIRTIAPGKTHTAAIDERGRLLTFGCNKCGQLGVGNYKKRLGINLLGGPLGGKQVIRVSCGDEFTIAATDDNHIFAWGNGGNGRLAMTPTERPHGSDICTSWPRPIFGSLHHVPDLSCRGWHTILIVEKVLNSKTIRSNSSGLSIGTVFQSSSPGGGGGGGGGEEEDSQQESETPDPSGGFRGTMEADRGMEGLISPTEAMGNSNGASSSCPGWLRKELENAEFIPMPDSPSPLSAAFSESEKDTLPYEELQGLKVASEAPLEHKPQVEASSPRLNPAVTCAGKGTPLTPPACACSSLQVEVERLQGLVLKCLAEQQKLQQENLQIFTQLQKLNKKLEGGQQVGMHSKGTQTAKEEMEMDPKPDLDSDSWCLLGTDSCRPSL

[7] = molecular target: T3, cAMP-dependent protein kinase catalytic subunit PRKX (Homo sapiens) (UniProt P51817); assay: Selectivity interaction (Kinase panel (Invitrogen)) EUB0000639a PRKX; conditions: at 200 nM
T3 sequence (whole entry): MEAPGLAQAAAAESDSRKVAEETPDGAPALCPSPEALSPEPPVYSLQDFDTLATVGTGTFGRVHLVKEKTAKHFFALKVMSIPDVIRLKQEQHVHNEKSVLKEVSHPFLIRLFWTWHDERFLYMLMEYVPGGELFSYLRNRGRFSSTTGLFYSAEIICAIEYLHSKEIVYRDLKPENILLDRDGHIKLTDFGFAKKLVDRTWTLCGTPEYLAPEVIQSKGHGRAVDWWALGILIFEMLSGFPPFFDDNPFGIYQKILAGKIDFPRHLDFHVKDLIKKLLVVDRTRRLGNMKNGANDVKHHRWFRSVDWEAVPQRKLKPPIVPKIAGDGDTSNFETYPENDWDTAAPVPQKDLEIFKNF

[8] = molecular target: Tyrosine-protein kinase Yes (Homo sapiens) (UniProt P07947); assay: Selectivity interaction (KinomeScan (DiscoverX)) EUB0000655a YES1; conditions: at 10 µM
Chain of Tyrosine-protein kinase Yes (Homo sapiens) (P07947 2-543 limits assumed): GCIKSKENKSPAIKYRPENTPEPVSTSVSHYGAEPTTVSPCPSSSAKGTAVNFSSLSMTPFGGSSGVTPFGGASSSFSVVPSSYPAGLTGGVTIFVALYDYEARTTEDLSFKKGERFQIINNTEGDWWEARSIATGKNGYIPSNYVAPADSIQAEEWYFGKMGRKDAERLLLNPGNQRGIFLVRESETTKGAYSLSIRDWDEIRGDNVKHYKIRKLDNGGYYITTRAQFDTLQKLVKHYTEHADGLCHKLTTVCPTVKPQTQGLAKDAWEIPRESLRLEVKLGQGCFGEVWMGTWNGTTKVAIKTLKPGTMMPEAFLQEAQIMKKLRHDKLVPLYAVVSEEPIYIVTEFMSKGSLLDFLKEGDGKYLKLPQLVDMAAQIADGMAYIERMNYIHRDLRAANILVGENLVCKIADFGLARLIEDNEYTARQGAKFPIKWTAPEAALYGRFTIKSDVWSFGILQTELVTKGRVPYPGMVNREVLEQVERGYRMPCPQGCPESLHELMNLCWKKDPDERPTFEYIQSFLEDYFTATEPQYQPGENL

[9] = molecular target: Cyclin-dependent kinase 2 (Homo sapiens, UniProt P24941); conditions: at 10 µM
[10] = molecular target: Tyrosine-protein kinase receptor UFO (Homo sapiens) (UniProt P30530); assay: Selectivity interaction (Ambit KINOMEscan and KiNATiv profiling in Jurkat cells) EUB0000090b AXL; type: cell-based; conditions: at 1 µM
Chain of Tyrosine-protein kinase receptor UFO (Homo sapiens) (P30530 whole entry): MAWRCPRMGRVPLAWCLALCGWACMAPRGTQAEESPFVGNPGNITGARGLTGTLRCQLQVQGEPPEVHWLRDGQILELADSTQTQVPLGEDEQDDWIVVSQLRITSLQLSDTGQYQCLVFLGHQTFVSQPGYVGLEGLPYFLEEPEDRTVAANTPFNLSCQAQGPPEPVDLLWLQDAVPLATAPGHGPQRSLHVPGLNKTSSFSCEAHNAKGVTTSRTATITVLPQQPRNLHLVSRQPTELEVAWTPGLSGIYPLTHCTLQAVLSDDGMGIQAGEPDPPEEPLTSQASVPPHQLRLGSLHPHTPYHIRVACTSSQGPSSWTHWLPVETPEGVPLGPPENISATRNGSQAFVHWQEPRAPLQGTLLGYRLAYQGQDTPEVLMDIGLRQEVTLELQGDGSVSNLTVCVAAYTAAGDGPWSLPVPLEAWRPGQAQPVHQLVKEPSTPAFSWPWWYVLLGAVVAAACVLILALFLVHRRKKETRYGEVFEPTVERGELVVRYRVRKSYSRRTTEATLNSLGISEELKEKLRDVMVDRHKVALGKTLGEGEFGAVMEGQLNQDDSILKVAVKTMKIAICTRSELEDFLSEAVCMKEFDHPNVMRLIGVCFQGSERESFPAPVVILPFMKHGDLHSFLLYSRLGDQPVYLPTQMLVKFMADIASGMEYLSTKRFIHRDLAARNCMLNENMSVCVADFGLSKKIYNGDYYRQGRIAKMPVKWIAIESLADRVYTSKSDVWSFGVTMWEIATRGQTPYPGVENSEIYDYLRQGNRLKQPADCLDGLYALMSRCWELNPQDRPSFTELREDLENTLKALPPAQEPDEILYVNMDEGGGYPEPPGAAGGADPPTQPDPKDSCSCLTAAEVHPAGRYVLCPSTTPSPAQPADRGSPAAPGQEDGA

Chain of Serine/threonine-protein kinase MRCK alpha (Homo sapiens) (Q5VT25 whole entry): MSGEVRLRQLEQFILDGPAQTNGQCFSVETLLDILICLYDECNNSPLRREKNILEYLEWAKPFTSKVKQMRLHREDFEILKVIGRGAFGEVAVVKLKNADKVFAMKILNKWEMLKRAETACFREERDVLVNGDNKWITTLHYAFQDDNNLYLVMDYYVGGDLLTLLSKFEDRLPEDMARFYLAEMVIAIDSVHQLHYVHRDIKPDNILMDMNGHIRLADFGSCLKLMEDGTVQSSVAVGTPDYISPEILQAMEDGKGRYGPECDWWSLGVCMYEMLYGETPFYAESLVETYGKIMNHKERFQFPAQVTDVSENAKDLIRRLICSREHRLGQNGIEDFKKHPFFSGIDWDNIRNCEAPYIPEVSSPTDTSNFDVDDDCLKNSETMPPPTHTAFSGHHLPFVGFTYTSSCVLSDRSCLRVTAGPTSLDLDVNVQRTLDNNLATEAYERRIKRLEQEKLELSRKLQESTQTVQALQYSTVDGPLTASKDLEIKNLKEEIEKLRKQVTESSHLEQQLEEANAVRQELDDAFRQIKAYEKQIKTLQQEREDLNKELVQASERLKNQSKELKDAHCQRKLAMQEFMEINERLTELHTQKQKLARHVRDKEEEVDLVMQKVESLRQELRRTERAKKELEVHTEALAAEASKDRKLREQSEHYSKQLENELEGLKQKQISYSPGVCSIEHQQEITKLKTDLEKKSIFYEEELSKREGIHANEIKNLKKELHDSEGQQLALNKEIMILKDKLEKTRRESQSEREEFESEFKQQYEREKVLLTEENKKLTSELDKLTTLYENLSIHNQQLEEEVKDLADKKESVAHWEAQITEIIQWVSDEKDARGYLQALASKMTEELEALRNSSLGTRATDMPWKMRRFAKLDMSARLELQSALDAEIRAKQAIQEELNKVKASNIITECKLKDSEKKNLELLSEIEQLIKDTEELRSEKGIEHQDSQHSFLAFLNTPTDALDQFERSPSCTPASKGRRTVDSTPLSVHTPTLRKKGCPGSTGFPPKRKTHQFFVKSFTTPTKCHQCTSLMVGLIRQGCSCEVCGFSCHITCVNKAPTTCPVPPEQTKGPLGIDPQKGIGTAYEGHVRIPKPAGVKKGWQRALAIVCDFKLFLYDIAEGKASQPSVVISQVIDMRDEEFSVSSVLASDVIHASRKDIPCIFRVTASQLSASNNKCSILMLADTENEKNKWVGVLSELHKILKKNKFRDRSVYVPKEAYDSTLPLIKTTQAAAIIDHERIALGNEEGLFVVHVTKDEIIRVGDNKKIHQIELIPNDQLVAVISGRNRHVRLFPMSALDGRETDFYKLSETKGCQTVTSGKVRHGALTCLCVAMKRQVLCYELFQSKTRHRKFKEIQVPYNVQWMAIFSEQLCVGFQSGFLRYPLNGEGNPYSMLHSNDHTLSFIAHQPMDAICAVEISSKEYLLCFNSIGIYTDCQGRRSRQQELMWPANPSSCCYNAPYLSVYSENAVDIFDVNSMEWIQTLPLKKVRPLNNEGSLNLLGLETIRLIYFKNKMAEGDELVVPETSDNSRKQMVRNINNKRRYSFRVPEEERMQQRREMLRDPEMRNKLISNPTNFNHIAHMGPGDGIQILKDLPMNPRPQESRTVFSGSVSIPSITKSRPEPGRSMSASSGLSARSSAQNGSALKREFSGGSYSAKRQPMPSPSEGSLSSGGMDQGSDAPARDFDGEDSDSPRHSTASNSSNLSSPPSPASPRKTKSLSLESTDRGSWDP

Cc1cc(F)c(C(=O)Nc2cccc(-c3nncn3C(C)C)n2)cc1-n1cnc(C2CC2)c1
% of control [1]: 100%

Cn1cc(-n2cnc3c(NCc4nc5cc(Cl)c(Cl)cc5[nH]4)nc(N4CCOCC4)nc32)cn1
% of inhibition [2]: -1.94%

Cc1cc([C@@H](C)Nc2ccccc2C(=O)O)c2nc(N3CCOCC3)cc(=O)n2c1 [AZD-6482]
% of control [3]: 100%

CC(=O)Nc1cccc(-n2c(=O)n(C3CC3)c(=O)c3c(Nc4ccc(I)cc4F)n(C)c(=O)c(C)c32)c1
% of control [4]: 104%

Cc1ccc(-c2ccc3c(ccc4sc5c(c43)NC[C@@H](C)NC5=O)n2)cn1
% of inhibition [5]: 1%

CC[C@@H]1[C@H](F)C(=O)N[C@@H]1COc1nccc2cc(C(N)=O)c(OC)cc12 [ZIMLOVISERTIB]
% of inhibition [6]: 1.1% | % of inhibition [7]: 11.1%

CN(C)CCOc1ccc(-c2nc(-c3ccncc3)c(-c3ccc4c(c3)CC/C4=N\O)[nH]2)cc1
% of control [8]: 100%

CCN(CC)CCCCNc1ncc2cc(-c3cc(OC)cc(OC)c3)c(NC(=O)NC(C)(C)C)nc2n1
% of control [9]: 100%

CN(C)C/C=C/C(=O)Nc1ccc(C(=O)N2CCCC(Nc3ncc(Cl)c(-c4c[nH]c5ccccc45)n3)C2)cc1 (stereo not given)
% of control [10]: 92%
